Test results from the supplement of paper PMC10307832.

What was measured:
Experiment in all cases: relative viability (nuclei count vs DMSO), 5 days (fraction); higher = more cells survive
NCI-H1944 = tested on: NCI-H1944
Procedure, shortened: (§1)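 Each reported value is a median over duplicate plates. It expresses relative viability: treated-well nuclei count divided by vehicle-well nuclei count. Lung cancer cell lines in 1536-well plates were dosed by pin tool a day after seeding, alone with one drug or with a fixed anchor-drug dose plus five library-drug doses (not always all listed) in √10 steps, and nuclei were counted after 5 days.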

NCI-H1651 = tested on: NCI-H1651
Procedure, shortened: as §1

NCI-H1395 = tested on: NCI-H1395
Procedure, shortened: as §1

EMC-BAC-2 = tested on: EMC-BAC-2
Procedure, shortened: as §1

EPLC-272H = tested on: EPLC-272H
Procedure, shortened: as §1

NCI-H520 = tested on: NCI-H520
Procedure, shortened: as §1

NCI-H838 = tested on: NCI-H838
Procedure, shortened: as §1

LU99A = tested on: LU99A
Procedure, shortened: as §1

NCI-H2087 = tested on: NCI-H2087
Procedure, shortened: as §1

ChaGo-K-1 = tested on: ChaGo-K-1
Procedure, shortened: as §1

HCC-827 = tested on: HCC-827
Procedure, shortened: as §1

NCI-H1793 = tested on: NCI-H1793
Procedure, shortened: as §1

HCC-44 = tested on: HCC-44
Procedure, shortened: as §1

NCI-H2405 = tested on: NCI-H2405
Procedure, shortened: as §1

NCI-H650 = tested on: NCI-H650
Procedure, shortened: as §1

NCI-H2023 = tested on: NCI-H2023
Procedure, shortened: as §1

LCLC-103H = tested on: LCLC-103H
Procedure, shortened: as §1

COR-L23 = tested on: COR-L23
Procedure, shortened: as §1

NCI-H2085 = tested on: NCI-H2085
Procedure, shortened: as §1

SK-MES-1 = tested on: SK-MES-1
Procedure, shortened: as §1

H3255 = tested on: H3255
Procedure, shortened: as §1

CCN(CC)CCCCNc1ncc2cc(-c3cc(OC)cc(OC)c3)c(NC(=O)NC(C)(C)C)nc2n1 + Cc1cc(Nc2cc(N3CCN(C)CC3)nc(Sc3ccc(NC(=O)C4CC4)cc3)n2)n[nH]1 [Tozasertib] (partner 0.1 µM)
relative viability (NCI-H1944; first compound 0.01 µM): 0.25 | relative viability (NCI-H1944; first compound 0.03162 µM): 0.27 | relative viability (NCI-H1944; first compound 0.1 µM): 0.248 | relative viability (NCI-H1944; first compound 0.3162 µM): 0.249 | relative viability (NCI-H1944; first compound 1 µM): 0.213 | relative viability (NCI-H1651; first compound 0.01 µM): 0.747 | relative viability (NCI-H1651; first compound 0.03162 µM): 0.716 | relative viability (NCI-H1651; first compound 0.1 µM): 0.907 | relative viability (NCI-H1651; first compound 0.3162 µM): 0.714 | relative viability (NCI-H1651; first compound 1 µM): 0.661 | relative viability (NCI-H1395; first compound 0.01 µM): 0.77 | relative viability (NCI-H1395; first compound 0.03162 µM): 0.754 | relative viability (NCI-H1395; first compound 0.1 µM): 0.785 | relative viability (NCI-H1395; first compound 0.3162 µM): 0.695 | relative viability (NCI-H1395; first compound 1 µM): 0.547 | relative viability (EMC-BAC-2; first compound 0.01 µM): 0.162 | relative viability (EMC-BAC-2; first compound 0.03162 µM): 0.292 | relative viability (EMC-BAC-2; first compound 0.1 µM): 0.277 | relative viability (EMC-BAC-2; first compound 0.3162 µM): 0.31 | relative viability (EMC-BAC-2; first compound 1 µM): 0.26 | relative viability (EPLC-272H; first compound 0.01 µM): 0.282 | relative viability (EPLC-272H; first compound 0.03162 µM): 0.314 | relative viability (EPLC-272H; first compound 0.1 µM): 0.279 | relative viability (EPLC-272H; first compound 0.3162 µM): 0.212 | relative viability (EPLC-272H; first compound 1 µM): 0.234 | relative viability (NCI-H520; first compound 0.01 µM): 0.383 | relative viability (NCI-H520; first compound 0.03162 µM): 0.452 | relative viability (NCI-H520; first compound 0.1 µM): 0.486 | relative viability (NCI-H520; first compound 0.3162 µM): 0.388 | relative viability (NCI-H520; first compound 1 µM): 0.261 | relative viability (NCI-H838; first compound 0.01 µM): 0.315 | relative viability (NCI-H838; first compound 0.03162 µM): 0.282 | relative viability (NCI-H838; first compound 0.1 µM): 0.259 | relative viability (NCI-H838; first compound 0.3162 µM): 0.271 | relative viability (NCI-H838; first compound 1 µM): 0.205 | relative viability (LU99A; first compound 0.01 µM): 0.283 | relative viability (LU99A; first compound 0.03162 µM): 0.281 | relative viability (LU99A; first compound 0.1 µM): 0.324 | relative viability (LU99A; first compound 0.3162 µM): 0.269 | relative viability (LU99A; first compound 1 µM): 0.265 | relative viability (NCI-H2087; first compound 0.01 µM): 0.243 | relative viability (NCI-H2087; first compound 0.03162 µM): 0.282 | relative viability (NCI-H2087; first compound 0.1 µM): 0.25 | relative viability (NCI-H2087; first compound 0.3162 µM): 0.236 | relative viability (NCI-H2087; first compound 1 µM): 0.251 | relative viability (ChaGo-K-1; first compound 0.01 µM): 0.233 | relative viability (ChaGo-K-1; first compound 0.03162 µM): 0.213 | relative viability (ChaGo-K-1; first compound 0.1 µM): 0.223 | relative viability (ChaGo-K-1; first compound 0.3162 µM): 0.242 | relative viability (ChaGo-K-1; first compound 1 µM): 0.219 | relative viability (HCC-827; first compound 0.01 µM): 0.536 | relative viability (HCC-827; first compound 0.03162 µM): 0.394 | relative viability (HCC-827; first compound 0.1 µM): 0.423 | relative viability (HCC-827; first compound 0.3162 µM): 0.547 | relative viability (HCC-827; first compound 1 µM): 0.396 | relative viability (NCI-H1793; first compound 0.01 µM): 0.311 | relative viability (NCI-H1793; first compound 0.03162 µM): 0.367 | relative viability (NCI-H1793; first compound 0.1 µM): 0.362 | relative viability (NCI-H1793; first compound 0.3162 µM): 0.348 | relative viability (NCI-H1793; first compound 1 µM): 0.241 | relative viability (HCC-44; first compound 0.01 µM): 1.1 | relative viability (HCC-44; first compound 0.03162 µM): 1.07 | relative viability (HCC-44; first compound 0.1 µM): 0.953 | relative viability (HCC-44; first compound 0.3162 µM): 0.899 | relative viability (HCC-44; first compound 1 µM): 0.85 | relative viability (NCI-H2405; first compound 0.01 µM): 0.729 | relative viability (NCI-H2405; first compound 0.03162 µM): 0.737 | relative viability (NCI-H2405; first compound 0.1 µM): 0.699 | relative viability (NCI-H2405; first compound 0.3162 µM): 0.733 | relative viability (NCI-H2405; first compound 1 µM): 0.695 | relative viability (NCI-H650; first compound 0.01 µM): 0.714 | relative viability (NCI-H650; first compound 0.03162 µM): 0.757 | relative viability (NCI-H650; first compound 0.1 µM): 0.765 | relative viability (NCI-H650; first compound 0.3162 µM): 0.704 | relative viability (NCI-H650; first compound 1 µM): 0.66 | relative viability (NCI-H2023; first compound 0.01 µM): 0.323 | relative viability (NCI-H2023; first compound 0.03162 µM): 0.428 | relative viability (NCI-H2023; first compound 0.1 µM): 0.401 | relative viability (NCI-H2023; first compound 0.3162 µM): 0.41 | relative viability (NCI-H2023; first compound 1 µM): 0.222 | relative viability (LCLC-103H; first compound 0.01 µM): 0.588 | relative viability (LCLC-103H; first compound 0.03162 µM): 0.486 | relative viability (LCLC-103H; first compound 0.1 µM): 0.54 | relative viability (LCLC-103H; first compound 0.3162 µM): 0.452 | relative viability (LCLC-103H; first compound 1 µM): 0.31 | relative viability (COR-L23; first compound 0.01 µM): 0.226 | relative viability (COR-L23; first compound 0.03162 µM): 0.205 | relative viability (COR-L23; first compound 0.1 µM): 0.157 | relative viability (COR-L23; first compound 0.3162 µM): 0.206 | relative viability (COR-L23; first compound 1 µM): 0.171 | relative viability (NCI-H2085; first compound 0.01 µM): 0.819 | relative viability (NCI-H2085; first compound 0.03162 µM): 0.762 | relative viability (NCI-H2085; first compound 0.1 µM): 0.823 | relative viability (NCI-H2085; first compound 0.3162 µM): 0.729 | relative viability (NCI-H2085; first compound 1 µM): 0.639 | relative viability (SK-MES-1; first compound 0.01 µM): 1.01 | relative viability (SK-MES-1; first compound 0.03162 µM): 1.02 | relative viability (SK-MES-1; first compound 0.1 µM): 1.1 | relative viability (SK-MES-1; first compound 0.3162 µM): 1.03 | relative viability (SK-MES-1; first compound 1 µM): 0.879 | relative viability (H3255; first compound 0.01 µM): 0.91 | relative viability (H3255; first compound 0.03162 µM): 0.654 | relative viability (H3255; first compound 0.1 µM): 0.544 | relative viability (H3255; first compound 0.3162 µM): 0.607 | relative viability (H3255; first compound 1 µM): 0.585
